In the NIST ThermoML archive (doi:10.1021/je300134c):

Test: xn = mol fraction of the nth substance listed
Details: 101 kPa, Liquid; for speed of sound: Sing-around technique in a fixed-path interferometer; for mass density: Vibrating tube method

CCCC[n+]1ccn(CC)c1.O=S(=O)([O-])C(F)(F)F + O
Details | mass density [kg/m3] | speed of sound [m/s]
278.15 K, x1 = 0.04992 | 1120.13 | 1524
278.15 K, x1 = 0.1001 | 1171.15 | 1521.3
278.15 K, x1 = 0.1498 | 1199.88 | 1514.7
278.15 K, x1 = 0.1998 | 1218.01 | 1505.6
278.15 K, x1 = 0.3013 | 1239.57 | 1484.6
278.15 K, x1 = 0.4012 | 1251.73 | 1467.7
278.15 K, x1 = 0.496 | 1259.25 | 1455.4
278.15 K, x1 = 0.6017 | 1265.19 | 1444.9
278.15 K, x1 = 0.7007 | 1269.28 | 1436.2
278.15 K, x1 = 0.8551 | 1274.04 | 1428
278.15 K, x1 = 0.9006 | 1275.29 | 1424.8
278.15 K, x1 = 1 | 1278.02 | 1420.6
288.15 K, x1 = 0.04992 | 1114.86 | 1527.1
288.15 K, x1 = 0.1001 | 1164.38 | 1513.5
288.15 K, x1 = 0.1498 | 1192.37 | 1500.2
288.15 K, x1 = 0.1998 | 1210.13 | 1487.1
288.15 K, x1 = 0.3013 | 1231.45 | 1462.7
288.15 K, x1 = 0.4012 | 1243.63 | 1444.7
288.15 K, x1 = 0.496 | 1251.19 | 1432
288.15 K, x1 = 0.6017 | 1257.22 | 1421
288.15 K, x1 = 0.7007 | 1261.36 | 1412.4
288.15 K, x1 = 0.8551 | 1266.2 | 1403.7
288.15 K, x1 = 0.9006 | 1267.39 | 1400.7
288.15 K, x1 = 1 | 1269.97 | 1396.3
298.15 K, x1 = 0.04992 | 1109.08 | 1526.5
298.15 K, x1 = 0.1001 | 1157.27 | 1503
298.15 K, x1 = 0.1498 | 1184.63 | 1484.1
298.15 K, x1 = 0.1998 | 1202.11 | 1467.7
298.15 K, x1 = 0.3013 | 1223.27 | 1440.8
298.15 K, x1 = 0.4012 | 1235.48 | 1422
298.15 K, x1 = 0.496 | 1243.13 | 1409
298.15 K, x1 = 0.6017 | 1249.23 | 1397.9
298.15 K, x1 = 0.7007 | 1253.44 | 1389.3
298.15 K, x1 = 0.8551 | 1258.37 | 1380.5
298.15 K, x1 = 0.9006 | 1259.57 | 1377.5
298.15 K, x1 = 1 | 1262.21 | 1373.1
308.15 K, x1 = 0.04992 | 1102.81 | 1522.5
308.15 K, x1 = 0.1001 | 1149.85 | 1490.2
308.15 K, x1 = 0.1498 | 1176.7 | 1466.4
308.15 K, x1 = 0.1998 | 1193.95 | 1447.6
308.15 K, x1 = 0.3013 | 1215.04 | 1418.7
308.15 K, x1 = 0.4012 | 1227.32 | 1399.3
308.15 K, x1 = 0.496 | 1235.04 | 1386.3
308.15 K, x1 = 0.6017 | 1241.24 | 1375.1
308.15 K, x1 = 0.7007 | 1245.51 | 1366.7
308.15 K, x1 = 0.8551 | 1250.54 | 1357.8
308.15 K, x1 = 0.9006 | 1251.76 | 1355
308.15 K, x1 = 1 | 1254.44 | 1350.6
318.15 K, x1 = 0.04992 | 1096.1 | 1515.2
318.15 K, x1 = 0.1001 | 1142.14 | 1475.1
318.15 K, x1 = 0.1498 | 1168.57 | 1447.5
318.15 K, x1 = 0.1998 | 1185.67 | 1426.7
318.15 K, x1 = 0.3013 | 1206.74 | 1396.3
318.15 K, x1 = 0.4012 | 1219.13 | 1376.7
318.15 K, x1 = 0.496 | 1226.96 | 1363.7
318.15 K, x1 = 0.6017 | 1233.26 | 1352.5
318.15 K, x1 = 0.7007 | 1237.61 | 1344.3
318.15 K, x1 = 0.8551 | 1242.74 | 1335.7
318.15 K, x1 = 0.9006 | 1243.97 | 1333
318.15 K, x1 = 1 | 1246.71 | 1328.6
328.15 K, x1 = 0.04992 | 1088.96 | 1504.9
328.15 K, x1 = 0.1001 | 1134.15 | 1458.2
328.15 K, x1 = 0.1498 | 1160.26 | 1427.4
328.15 K, x1 = 0.1998 | 1177.26 | 1405
328.15 K, x1 = 0.3013 | 1198.39 | 1373.8
328.15 K, x1 = 0.4012 | 1210.91 | 1354.1
328.15 K, x1 = 0.496 | 1218.87 | 1341.2
328.15 K, x1 = 0.6017 | 1225.3 | 1330.3
328.15 K, x1 = 0.7007 | 1229.73 | 1322.3
328.15 K, x1 = 0.8551 | 1234.98 | 1314
328.15 K, x1 = 0.9006 | 1236.23 | 1311.3
328.15 K, x1 = 1 | 1239.01 | 1307.1
338.15 K, x1 = 0.04992 | 1081.43 | 1492
338.15 K, x1 = 0.1001 | 1125.92 | 1439.7
338.15 K, x1 = 0.1498 | 1151.76 | 1406.4
338.15 K, x1 = 0.1998 | 1168.74 | 1382.8
338.15 K, x1 = 0.3013 | 1189.99 | 1351.2
338.15 K, x1 = 0.4012 | 1202.68 | 1331.6
338.15 K, x1 = 0.496 | 1210.79 | 1319
338.15 K, x1 = 0.6017 | 1217.37 | 1308.4
338.15 K, x1 = 0.7007 | 1221.89 | 1300.7
338.15 K, x1 = 0.8551 | 1227.27 | 1292.7
338.15 K, x1 = 0.9006 | 1228.53 | 1290.2
338.15 K, x1 = 1 | 1231.35 | 1286.1
